From patent US7566718B2, “Amine-linked pyridyl and phenyl substituted piperazine-piperidines with CXCR3 antagonist activity” (Schering Corporation, priority 2005, dated 2009)

Target: T1, human CXCR3 (N-delta 4) (Homo sapiens, UniProt P49682)
T1 construct: CD8 leader (N); Flag tag; expressed in transfected cells; membrane preparation
T1 sequence (P49682 5-368 limits assumed): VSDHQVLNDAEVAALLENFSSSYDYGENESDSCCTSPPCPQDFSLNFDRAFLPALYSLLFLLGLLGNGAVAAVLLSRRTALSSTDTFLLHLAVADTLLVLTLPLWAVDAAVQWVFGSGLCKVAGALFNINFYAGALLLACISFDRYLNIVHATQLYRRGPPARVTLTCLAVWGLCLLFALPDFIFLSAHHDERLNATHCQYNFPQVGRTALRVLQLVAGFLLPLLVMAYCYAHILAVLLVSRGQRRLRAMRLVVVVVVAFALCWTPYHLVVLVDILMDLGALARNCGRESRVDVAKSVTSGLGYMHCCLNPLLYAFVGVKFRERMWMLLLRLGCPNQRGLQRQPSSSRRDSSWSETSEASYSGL
Assay: Human CXCR3 (N-delta 4) scintillation proximity assay (SPA), [125I] IP-10 binding to Ba/F3-hCXCR3 membranes
Settings: IC50 rating; [125I] IP-10 displacement, human CXCR3; read-out: IC50
Outline: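 Membranes from Ba/F3 cells expressing Flag-tagged hCXCR3 (N-delta 4), 2 μg/point, precoupled to WGA SPA beads. Binding of 25 pM [125I] IP-10 measured with titrated compounds, 3 hr at room temperature, in HEPES buffer with CaCl2, MgCl2, NaCl and 1.0% BSA; bound tracer read by scintillation counting.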

Compound	IC50 [nM]
C[C@H]1CN(c2ncc(NS(C)(=O)=O)cc2Cl)CCN1C1CCN(Cc2ccc(C(F)(F)F)cc2F)CC1 [Compound 64]	> 100
C[C@H]1CN(c2ncc(N)cc2Cl)CCN1C1CCN(Cc2ccc(Cl)cc2)CC1 [Compound 218]	> 100
C[C@@H]1CN(c2ncc(Nc3c(NCC(F)(F)F)c(=O)c3=O)cc2Cl)[C@@H](C)CN1C1CCN(Cc2cccc3c2OCO3)CC1 [Compound 119]	> 100
CC[C@H]1CN(c2ncc(NC3=NS(=O)(=O)N=C3NCCNS(C)(=O)=O)cc2Cl)CCN1C1CCN(Cc2ccc(Cl)cc2F)CC1 [Compound 274]	> 100
CC[C@H]1CN(c2ncc(NS(C)(=O)=O)cc2Cl)CCN1C1CCN(Cc2ccc(Cl)s2)CC1 [Compound 26]	25 to 100
CC[C@H]1CN(c2ncc(NS(C)(=O)=O)cc2Cl)CCN1C1CCN(C(=O)c2ccc(Cl)cc2)CC1 [Compound 51]	> 100
C[C@@H]1CN(c2ncc(Nc3c(NCC(F)(F)F)c(=O)c3=O)cc2Cl)[C@@H](C)CN1C1CCN(Cc2ccc3c(c2)OCO3)CC1 [Compound 120]	> 100
C[C@@H]1CN(c2ncc(Nc3c(NCC(F)(F)F)c(=O)c3=O)cc2Cl)[C@@H](C)CN1C1CCN(CC(c2ccccc2)c2ccccc2)CC1 [Compound 160]	> 100
C[C@@H]1CN(c2ncc(Nc3c(NCC(F)(F)F)c(=O)c3=O)cc2Cl)[C@@H](C)CN1C1CCN(C2CCCC(C(F)(F)F)C2)CC1 (some centres unmarked) [Compound 172]	> 100
C[C@@H]1CN(c2ncc(Nc3c(NCC(F)(F)F)c(=O)c3=O)cc2Cl)[C@@H](C)CN1C1CCN(C2CCCC(C(F)(F)F)C2)CC1 (some centres unmarked) [Compound 145]	> 100
C[C@H]1CN(c2ncc(NS(C)(=O)=O)cc2Cl)CCN1C1CCN(Cc2ccc(Cl)cc2)CC1 [Compound 32]	25 to 100
C[C@H]1CN(c2ncc(NS(C)(=O)=O)cc2Cl)CCN1C1CCN(Cc2ccc(C#N)cc2)CC1 [Compound 53]	> 100
CCC(C)CN1CCC(N2C[C@H](C)N(c3ncc(Nc4c(NCC(F)(F)F)c(=O)c4=O)cc3Cl)C[C@H]2C)CC1 (some centres unmarked) [Compound 170]	> 100
CC[C@H]1CN(c2ncc(Nc3c(NC4CC4)c(=O)c3=O)cc2Cl)CCN1C1CCN(C(=O)c2ccc(Cl)cc2N)CC1 [Compound 111]	25 to 100
C[C@@H]1CN(c2ncc(Nc3c(NCC(F)(F)F)c(=O)c3=O)cc2Cl)[C@@H](C)CN1C1CCN(C2CCC(c3ccccc3)CC2)CC1 (some centres unmarked) [Compound 173]	> 100
CC[C@H]1CN(c2ncc(NS(=O)(=O)C(C)C)cc2Cl)CCN1C1CCN(Cc2ccc(Cl)cc2F)CC1 [Compound 29]	25 to 100
CC[C@H]1CN(c2ncc(NC3=NS(=O)(=O)N=C3NC3CC3)cc2Cl)CCN1C1CCN(Cc2ccc(C#N)nc2)CC1 [Compound 266]	> 100
C[C@H]1CN(c2ncc(NS(C)(=O)=O)cc2Cl)CCN1C1CCN(CCCc2ccc(Cl)cc2)CC1 [Compound 57]	> 100
CC[C@H]1CN(c2ncc(NS(C)(=O)=O)cc2Cl)CCN1C1CCN(Cc2ccc(O)cc2)CC1 [Compound 67]	> 100
CC[C@H]1CN(c2ncc(N(C)c3c(NC4CC4)c(=O)c3=O)cc2Cl)CCN1C1CCN([C@H](C(N)=O)c2ccc(Cl)cc2)CC1 [Compound 112]	25 to 100

Compound	IC50 [nM]
CCC(C)(C)C1CCC(N2CCC(N3C[C@H](C)N(c4ncc(Nc5c(NCC(F)(F)F)c(=O)c5=O)cc4Cl)C[C@H]3C)CC2)C1 (some centres unmarked) [Compound 144]	> 100
CC[C@H]1CN(c2ncc(NC3=NS(=O)(=O)N=C3N3CCOCC3)cc2Cl)CCN1C1CCN(Cc2ccc(F)c(F)c2)CC1 [Compound 269]	> 100
CC[C@H]1CN(c2ncc(NS(C)(=O)=O)cc2Cl)CCN1C1CCN(C(=O)c2ccc(Br)s2)CC1 [Compound 69]	> 100
C[C@H]1CN(c2ncc(NN)cc2Cl)CCN1C1CCN(Cc2ccc(Cl)cc2F)CC1 [Compound 231]	> 100
CC[C@H]1CN(c2ccc([N+](=O)[O-])cc2Cl)CCN1C1CCN(Cc2ccc(Cl)cc2)CC1 [Compound 216]	> 100
C[C@@H]1CN(c2ncc(Nc3c(NCC(F)(F)F)c(=O)c3=O)cc2Cl)[C@@H](C)CN1C1CCN(Cc2ccccc2O)CC1 [Compound 153]	> 100
C[C@@H]1CN(c2ncc(Nc3c(NCC(F)(F)F)c(=O)c3=O)cc2Cl)[C@@H](C)CN1C1CCN(Cc2cccc(Br)c2)CC1 [Compound 136]	> 100
C[C@H]1CN(c2ncc(NC(=O)C3CCCCC3)cc2Cl)CCN1C1CCN(Cc2ccc(Cl)cc2)CC1 [Compound 194]	> 100
C[C@H]1CN(c2ncc(NC(=O)NCc3ccccc3)cc2Cl)CCN1C1CCN(Cc2ccc(Cl)cc2)CC1 [Compound 198]	> 100
C[C@H]1CN(c2ncc([N+](=O)[O-])cc2Cl)CCN1C1CCN(Cc2ccc(Cl)cc2F)CC1 [Compound 227]	> 100
C[C@@H]1CN(c2ncc(Nc3c(NCC(F)(F)F)c(=O)c3=O)cc2Cl)[C@@H](C)CN1C1CCN(Cc2cccc(C#N)c2)CC1 [Compound 143]	> 100
CC[C@H]1CN(c2ncc(NC(=O)NN)cc2Cl)CCN1C1CCN(Cc2ccc(Cl)cc2F)CC1 [Compound 188]	25 to 100
CC[C@H]1CN(c2ncc(N/C(=N/C#N)NCCO)cc2Cl)CCN1C1CCN(Cc2ccc(Cl)cc2F)CC1 [Compound 214]	> 100
CCNC(=O)Nc1ccc(N2CCN(C3CCN(Cc4ccc(Cl)cc4)CC3)[C@@H](CC)C2)c(Cl)c1 [Compound 192]	> 100
CC[C@H]1CN(c2ncc(NS(C)(=O)=O)cc2Cl)CCN1C1CCN(C(=O)c2ccc(Cl)cc2N)CC1 [Compound 24]	25 to 100
Cc1cc(Nc2c(NCC(F)(F)F)c(=O)c2=O)cnc1N1C[C@@H](C)N(C2CCN(C(=O)c3ccc(Cl)cc3)CC2)C[C@@H]1C [Compound 141]	> 100
CC[C@H]1CN(c2ncc(NS(C)(=O)=O)cc2Cl)CCN1C1CCN(C(=O)c2ccc(OC(F)(F)F)cc2)CC1 [Compound 68]	> 100
C[C@@H]1CN(c2ncc(Nc3c(NCC(F)(F)F)c(=O)c3=O)cc2Cl)[C@@H](C)CN1C1CCN(CCC(C)(C)C)CC1 [Compound 150]	> 100
C[C@@H]1CN(c2ncc(Nc3c(NCC(F)(F)F)c(=O)c3=O)cc2Cl)[C@@H](C)CN1C1CCN(Cc2ccc(Oc3ccccc3)cc2)CC1 [Compound 161]	> 100

The remaining lines, values ahead:

IC50 [nM]	Compound
< 25	CC[C@H]1CN(c2ncc(Nc3c(NCC(F)(F)F)c(=O)c3=O)cc2Cl)CCN1C1CCN(C(CO)c2ccc(Cl)cc2)CC1 (some centres unmarked) [Compound 85]
< 25	CC[C@H]1CN(c2ncc(NS(C)(=O)=O)cc2Cl)CCN1C1CCN(Cc2ccc(Cl)cc2NC)CC1 [Compound 14]
< 25	CC[C@H]1CN(c2ncc(NC3=NS(=O)(=O)N=C3NC3CC3)cc2Cl)CCN1C1CCN(Cc2ccc(F)c(F)c2)CC1 [Compound 251]
25 to 100	CC[C@H]1CN(c2ncc(NS(C)(=O)=O)cc2Cl)CCN1C1CCN(C(=O)c2ccc(Cl)nc2N)CC1 [Compound 31]
< 25	CC[C@H]1CN(c2ncc(Nc3c(NC4CC4)c(=O)c3=O)cc2Cl)CCN1C1CCN(Cc2ccc(Cl)cc2C(N)=O)CC1 [Compound 81]
< 25	CC[C@H]1CN(c2ncc(Nc3c(N4CCOCC4)c(=O)c3=O)cc2Cl)CCN1C1CCN(Cc2ccc(Cl)cc2F)CC1 [Compound 96]
< 25	CC[C@H]1CN(c2ncc(Nc3c(NC4CC4)c(=O)c3=O)cc2Cl)CCN1C1CCN([C@H](CO)c2ccc(Cl)cc2)CC1 [Compound 71]
< 25	CC[C@H]1CN(c2ncc(NS(C)(=O)=O)cc2Cl)CCN1C1CCN(Cc2ccc(Cl)cc2N)CC1 [Compound 9]
< 25	C[C@@H]1CN(C2CCN(Cc3ccc(Cl)cc3F)CC2)[C@@H](C)CN1c1ncc(Nc2c(NCC(F)(F)F)c(=O)c2=O)cc1Cl [Compound 92]
< 25	CC[C@H]1CN(c2ncc(Nc3c(NC4CCC4)c(=O)c3=O)cc2Cl)CCN1C1CCN(Cc2ccc(Cl)cc2)CC1 [Compound 78]
< 25	CC[C@H]1CN(c2ncc(NC3=NS(=O)(=O)N=C3NC)cc2Cl)CCN1C1CCN(Cc2ccc(Cl)cc2C(=N)NO)CC1 [Compound 244]
< 25	CC[C@H]1CN(c2ncc(NC(=O)C(C)C)cc2Cl)CCN1C1CCN(Cc2ccc(Cl)cc2F)CC1 [Compound 178]
< 25	CC[C@H]1CN(c2ncc(NC(C)=O)cc2Cl)CCN1C1CCN(Cc2ccc(Cl)cc2F)CC1 [Compound 177]
< 25	CC[C@H]1CN(c2ncc(Nc3c(NCC(F)(F)F)c(=O)c3=O)cc2Cl)CCN1C1CCN(Cc2ccc(Cl)cc2F)CC1 [Compound 75]
< 25	CC[C@H]1CN(c2ncc(Nc3c(N(C)C)c(=O)c3=O)cc2Cl)CCN1C1CCN(C(CO)c2ccc(Cl)cc2)CC1 (some centres unmarked) [Compound 94]
< 25	CC[C@H]1CN(c2ncc(NS(C)(=O)=O)cc2Cl)CCN1C1CCN(Cc2ccc(OC(F)(F)F)cc2)CC1 [Compound 10]
< 25	CC[C@H]1CN(c2ncc(Nc3c(NC4CC4)c(=O)c3=O)cc2Cl)CCN1C1CCN(Cc2ccc(Cl)cc2[N+](=O)[O-])CC1 [Compound 99]
< 25	C[C@@H]1CN(C2CCN(Cc3ccc(Cl)cc3F)CC2)[C@@H](C)CN1c1ncc(Nc2c(NC3CC3)c(=O)c2=O)cc1Cl [Compound 90]
< 25	CC[C@H]1CN(c2ncc(Nc3c(NC4CCC4)c(=O)c3=O)cc2Cl)CCN1C1CCN(Cc2ccc(Cl)cc2F)CC1 [Compound 87]
< 25	CC[C@H]1CN(c2ncc(Nc3c(NC4CCC4)c(=O)c3=O)cc2Cl)CCN1C1CCN(Cc2ccc(OC(F)(F)F)cc2)CC1 [Compound 83]
